Laboratory results published in ChEMBL document CHEMBL1129522, “Inhibitors of acyl-CoA:cholesterol O-acyltransferase. 17. Structure-activity relationships of several series of compounds derived from N-chlorosulfonyl isocyanate” (J Med Chem, 1996).
Values joined by “and” are separate entries in the source; they are usually repeats but may differ in a detail not shown here. Equal values may be shown once.

What was measured:
[1] = molecular target: T1, Sterol O-acyltransferase 1 (Rattus norvegicus, UniProt O70536); assay: In vitro inhibitory activity against acyl coenzyme A:cholesterol acyltransferase 1 in microsomes of rat liver
T1 sequence (O70536 whole entry): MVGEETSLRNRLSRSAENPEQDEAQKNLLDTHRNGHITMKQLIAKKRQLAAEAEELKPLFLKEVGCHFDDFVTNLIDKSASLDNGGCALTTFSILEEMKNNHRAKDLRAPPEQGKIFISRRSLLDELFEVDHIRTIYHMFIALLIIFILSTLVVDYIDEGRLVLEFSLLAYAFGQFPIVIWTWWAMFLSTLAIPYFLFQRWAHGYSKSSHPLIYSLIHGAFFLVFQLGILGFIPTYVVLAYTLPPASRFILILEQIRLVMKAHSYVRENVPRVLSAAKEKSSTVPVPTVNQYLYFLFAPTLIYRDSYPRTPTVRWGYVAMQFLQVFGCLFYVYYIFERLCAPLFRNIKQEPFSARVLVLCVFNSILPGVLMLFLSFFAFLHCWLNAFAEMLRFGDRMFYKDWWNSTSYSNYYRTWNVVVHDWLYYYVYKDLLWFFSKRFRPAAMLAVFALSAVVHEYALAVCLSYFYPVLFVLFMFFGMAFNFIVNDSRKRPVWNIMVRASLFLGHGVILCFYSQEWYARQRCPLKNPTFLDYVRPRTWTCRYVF

Rattus norvegicus = assay: Acute in vivo activity measured by total plasma cholesterol concentration levels (TC) at 30 mg/kg dose; assay type: functional
[2] = molecular target: T2, Sterol O-acyltransferase 1 (Rattus norvegicus) (UniProt O70536); assay: Acute in vivo activity was measured by the total plasma cholesterol concentration levels(TC) at dose 3 mg/kg; assay type: functional, organism-based; parameters: dose 3 mg/kg
T2 sequence (whole entry): T1 sequence (O70536 whole entry)

SMILES	IC50 [1] [µM]	Delta TC (Rattus norvegicus) [%]	Delta TC [2]
COC(=O)NS(=O)(=O)Nc1c(C(C)C)cccc1C(C)C	> 100		
CCCCCCN(CCCCCC)S(=O)(=O)NC(=O)Oc1c(C(C)(C)C)cc(C)cc1C(C)(C)C	4.3		
Cc1cc(C(C)(C)C)c(OC(=O)NS(=O)(=O)N(C)CCc2ccccn2)c(C(C)(C)C)c1 [listing 1 of 2 here]	31		
CCCCCCCCCCCCOS(=O)(=O)NC(=O)Nc1c(C(C)C)cccc1C(C)C	6.8		
CC(C)c1cccc(C(C)C)c1OS(=O)(=O)NC(=O)OC1[C@H](C(C)C)CCC[C@H]1C(C)C (relative stereo)	5.7	-35	
CCCCCCCCCCN(CCCCCCCCCC)S(=O)(=O)NC(=O)Nc1c(C(C)C)cccc1C(C)C	0.72		-17%
CC(C)c1cccc(C(C)C)c1NC(=O)NS(=O)(=O)N1CCCCC1	17		
CCCCCCC(C)OC(=O)NS(=O)(=O)Oc1c(C(C)C)cccc1C(C)C (configuration not stated)	26	-32	
CCCCCCCCN(C)S(=O)(=O)NC(=O)Oc1c(C(C)(C)C)cc(C)cc1C(C)(C)C	18		1%
COc1cc(OC)c(OC(=O)NS(=O)(=O)Oc2c(C(C)C)cccc2C(C)C)c(OC)c1	> 25	-5	
CCCCCCCCCCCCN(CCCCCCCCCCCC)S(=O)(=O)NC(=O)Nc1c(C(C)C)cccc1C(C)C	69	-5	
COc1cccc(OC)c1OC(=O)NS(=O)(=O)Oc1c(C(C)C)cccc1C(C)C [listing 1 of 2 here]	> 50	-61	
CC(C)c1cc(Cl)cc(C(C)C)c1OC(=O)NS(=O)(=O)Oc1c(C(C)C)cccc1C(C)C	42	2	
CCCCN(CCCC)S(=O)(=O)NC(=O)Oc1c(C(C)C)cccc1C(C)C [listing 1 of 2 here]	1.9		
CC(C)c1cccc(C(C)C)c1OC(=O)NS(=O)(=O)N1CCc2ccccc21	43		-31%
Cc1cc(C(C)(C)C)c(OC(=O)NS(=O)(=O)N(CC2CCCO2)CC2CCCO2)c(C(C)(C)C)c1 (configuration not stated)	21		
COc1cccc(OC)c1OC(=O)[N-]S(=O)(=O)Oc1c(C(C)C)cccc1C(C)C.[Na+]	48	-49	
CCCCCN(CCCCC)S(=O)(=O)NC(=O)Oc1c(C(C)(C)C)cc(C)cc1C(C)(C)C	2.2		
CN(C(=O)Oc1c(C(C)(C)C)cccc1C(C)(C)C)S(=O)(=O)NC(c1ccccc1)c1ccccc1	4.6		
CC(C)c1cccc(C(C)C)c1OC(=O)NS(=O)(=O)Oc1ccccc1	> 50	-26	
CC(C)c1cccc(C(C)C)c1NS(=O)(=O)NC(=O)NC(c1ccccc1)c1ccccc1	30		-5%
CC(C)c1cccc(C(C)C)c1OS(=O)(=O)NC(=O)O[C@@H]1C[C@H](C)CCC1C(C)C (some centres not stated)	21	-40	
CC(C)c1cccc(C(C)C)c1NS(=O)(=O)NC(=O)Oc1c(-c2ccccc2)cccc1-c1ccccc1	> 25		
CC(C)c1cc(Br)cc(C(C)C)c1OC(=O)NS(=O)(=O)Oc1c(C(C)C)cccc1C(C)C	31	-29	
COc1cc(C(C)(C)C)c(OC(=O)NS(=O)(=O)NCC(c2ccccc2)c2ccccc2)c(C(C)(C)C)c1	82		-15%
CC(C)c1cccc(C(C)C)c1OS(=O)(=O)NC(=O)OC12CC3CC(CC(C3)C1)C2	13	-10	

SMILES	IC50 [1] [µM]	Delta TC (Rattus norvegicus) [%]	Delta TC [2]
CCCCN(CCCC)S(=O)(=O)NC(=O)Oc1c(C(C)C)cccc1C(C)C [listing 2 of 2 here]	1.9		
CC(C)c1ccc(OC(=O)NS(=O)(=O)Oc2c(C(C)C)cccc2C(C)C)c(C(C)C)c1	> 50	6	
CCCCN(CCCC)S(=O)(=O)NC(=O)Nc1c(C(C)C)cccc1C(C)C [listing 1 of 2 here]	0.53		
CC(C)c1cccc(C(C)C)c1OS(=O)(=O)NC(=O)Oc1c(F)c(F)c(F)c(F)c1F	66	-5	
CCCCCCCCCCCCCCCCCCN(C)S(=O)(=O)NC(=O)Nc1c(C(C)C)cccc1C(C)C	1.9		-18%
CCCCN(CCCC)S(=O)(=O)N(C)C(=O)Nc1c(C(C)C)cccc1C(C)C	> 5		
CC(C)c1ccccc1OC(=O)NS(=O)(=O)Oc1c(C(C)C)cccc1C(C)C	> 50	-37	
CC(C)c1cccc(C(C)C)c1OC(=O)NS(=O)(=O)N1CCN(C)CC1	> 100		
C=CCN(CC=C)S(=O)(=O)NC(=O)Nc1c(C(C)C)cccc1C(C)C	2.7		2%
Cc1cc(C)c(C)c(OC(=O)NS(=O)(=O)Oc2c(C(C)C)cccc2C(C)C)c1C	> 50	-17	
CC(=O)c1cc(C(C)C)c(OC(=O)NS(=O)(=O)Oc2c(C(C)C)cccc2C(C)C)c(C(C)C)c1	41.8	-16	
CC(C)c1cccc(C(C)C)c1OS(=O)(=O)NC(=O)OC1CCCCC1	38	-38	
CC(C)c1cccc(C(C)C)c1OC(=O)NS(=O)(=O)Oc1c(C(C)C)cccc1C(C)C	9.4	-70	
CCc1cccc(CC)c1COC(=O)NS(=O)(=O)Oc1c(C(C)C)cccc1C(C)C	20	-2	
CC(C)c1cc([N+](=O)[O-])cc(C(C)C)c1OC(=O)NS(=O)(=O)Oc1c(C(C)C)cccc1C(C)C	> 50	18	
CC(C)c1cccc(C(C)C)c1OS(=O)(=O)NC(=O)Sc1c(C(C)C)cccc1C(C)C	8.7	-17	
COc1cc(C(C)(C)C)c(OC(=O)NS(=O)(=O)Oc2c(C(C)C)cccc2C(C)C)c(C(C)(C)C)c1	4.8	-72	
CCC(C)N(C(=O)NS(=O)(=O)Oc1c(C(C)C)cccc1C(C)C)C(C)CC (configuration not stated)	12	-20	
CC(C)c1cccc(C(C)C)c1OC(=O)NS(=O)(=O)N1CCCC1	53		-4%
Cc1cccc(C(C)(C)C)c1OC(=O)NS(=O)(=O)Oc1c(C(C)C)cccc1C(C)C	49	-15	
CCN(CC)S(=O)(=O)NC(=O)Nc1c(C(C)C)cccc1C(C)C	2.5		
CC(C)c1cccc(C(C)C)c1OC(=O)[N-]S(=O)(=O)Oc1c(C(C)C)cccc1C(C)C.[Na+]		-74	
CCCCN(CC)S(=O)(=O)NC(=O)Nc1c(C(C)C)cccc1C(C)C	1.2		-29%
CC(C)c1cccc(C(C)C)c1OS(=O)(=O)NC(=O)Oc1c(C(C)(C)C)cc(CN(C)C)cc1C(C)(C)C	22	2	
CCCCCCNS(=O)(=O)NC(=O)Nc1c(C(C)C)cccc1C(C)C	8.1		
COc1cccc(OC)c1OC(=O)NS(=O)(=O)Oc1c(C(C)C)cccc1C(C)C [listing 2 of 2 here]			-12% and -4%

SMILES	IC50 [1] [µM]	Delta TC (Rattus norvegicus) [%]	Delta TC [2]
CC(C)c1cccc(C(C)C)c1OC(=O)NS(=O)(=O)N1CCCCC1	> 100		
CCCCN(CCCC)S(=O)(=O)NC(=O)Oc1c(C(C)(C)C)cc(C)cc1C(C)(C)C	3.2		
CCCCCCCCN(CCCCCCCC)S(=O)(=O)NC(=O)Oc1c(C(C)(C)C)cc(C)cc1C(C)(C)C	2.7		
CCCCCCNS(=O)(=O)NC(=O)Oc1c(C(C)(C)C)cc(C)cc1C(C)(C)C	19.4		-10%
CC(C)c1cccc(C(C)C)c1NS(=O)(=O)NC(=O)N(Cc1ccccc1)Cc1ccccc1	16		
CC(C)c1cccc(C(C)C)c1OC(=O)NS(=O)(=O)N(Cc1ccccc1)Cc1ccccc1	20		-17%
CCCCN(CCCC)S(=O)(=O)NC(=O)Nc1c(C(C)C)cccc1C(C)C [listing 2 of 2 here]	0.36		
CCCCCCCCCCC(C)OS(=O)(=O)NC(=O)Nc1c(C(C)C)cccc1C(C)C (configuration not stated)			-48%
CCCCN(C)S(=O)(=O)NC(=O)Nc1c(C(C)C)cccc1C(C)C	2.3		-37%
CCCCCCCCCCCCOC(=O)NS(=O)(=O)Nc1c(OC)cc(OC)cc1OC	30		
C=CCN(CC)S(=O)(=O)NC(=O)Nc1c(C(C)C)cccc1C(C)C	2.1		
CCCCCCOS(=O)(=O)NC(=O)Nc1c(C(C)C)cccc1C(C)C	27		-8%
Cc1cc(C(C)(C)C)c(OC(=O)NS(=O)(=O)N(C)CCc2ccccn2)c(C(C)(C)C)c1 [listing 2 of 2 here]	31		
CCCCCCCCCCOS(=O)(=O)NC(=O)Nc1c(C(C)C)cccc1C(C)C	> 10		
CC(C)c1cccc(C(C)C)c1NC(=O)NS(=O)(=O)N1CCC(c2ccccc2)CC1	10.4		-17%
CCCCCCNS(=O)(=O)NC(=O)Oc1c(C(C)C)cccc1C(C)C	21		-12%
CC(C)c1cccc(C(C)C)c1NC(=O)NS(=O)(=O)N(C)C	3.9		
CC(C)c1cccc(C(C)C)c1NC(=O)NS(=O)(=O)N(CCCN(C)C)CCCN(C)C	55		
CCCCCCCCCCCCOC(=O)NS(=O)(=O)Nc1c(C(C)C)cccc1C(C)C	33		
CC(C)c1cccc(C(C)C)c1NC(=O)NS(=O)(=O)N1CCCC1	15		
Cc1cc(C(C)(C)C)c(OC(=O)NS(=O)(=O)N(C(C)C)C(C)C)c(C(C)(C)C)c1	3.2		
CCCCCCCCCCN(CCCCCCCCCC)S(=O)(=O)NC(=O)Oc1c(C(C)(C)C)cc(C)cc1C(C)(C)C	89		
CC(C)NS(=O)(=O)NC(=O)Nc1c(C(C)C)cccc1C(C)C	18		
CC(C)c1cccc(C(C)C)c1OC(=O)NS(=O)(=O)N1CCOCC1	> 100		
COC(=O)NS(=O)(=O)Oc1c(C(C)C)cccc1C(C)C	> 100		
